Experimental data as given in US10815197B2, “N-sulfonyl benzamides as voltage-gated sodium channel inhibitors” (SHANGHAI HAIYAN PHARMACEUTICAL TECHNOLOGY CO., LTD., priority 2016, dated 2020).
Entries after “also recorded” stand apart in the source; their conditions may differ.

Key:
hNav1.5 = target: T1, hNav1.5 (Homo sapiens, UniProt Q14524); assay: Manual patch clamp experiment hNav1.5 (HEK-hNav1.5 stable cell line); format: cell-based; conditions: read-out: Nav1.5(IC50/nM)
T1 construct: host or cells: HEK
Text: Assay 1: Manual Patch Clamp Experiment of Sodium Ion (hNav1.7, hNav1.5 and hNaV1.8) and Calcium Ion (hCav3.2) Channels
hNav1.7, hNav1.5 Manual Patch Clamp Experiment:
Patch voltage clamp electrophysiology allows for the direct measurement and quantification of current block of voltage-gated sodium channels (NaV's), and allows the determination of the time and voltage-dependence of block which has been interpreted as differential binding to the resting, open and inactivated states of the sodium channel to reflect the compound's inhibitory or activating effects (Hille, B., Journal of General Physiology (1977), 69: 497-515).
Representative compounds of the present invention were subject to a manual patch clamp experiment and the purpose of this study was to test the effect of compounds on this ion channel current on a stable cell line transfected with a specific ion channel using a manual patch clamp method. The used stable cell lines CHO-hNav1.7 and HEK-hNav1.5 were from Genionics and WuXi Apptec (Shanghai) respectively.
Manual patch clamp experimental program is as follows: […]
The time intervals of these two voltage stimulation programs were 10 s. The inhibitory effect of the compound was calculated by the change of the current before and after dosing, the IC50 value was fitted by the Hill equation.

[1] = test system: SNL-induced cold allodynia in rats; assay: Cold allodynia in SNL (spinal nerve ligation) rats; format: in vivo, rat
Text: Assay 3: Cold Allodynia in SNL
The experimental animals were male Sprague-Dawley rats, weighing 140-150 g at the beginning of the experiment. The animals were purchased from Slack company, and food and water were supplied ad lib after purchase. Rats were group-housed, four rats/cage, and individually identified by marking on the tail.
Test Compound and Grouping:
Vehicle: 5% dimethylacetamide(Sinopharm Technology), 5% solutol (Sigma) and 90% saline
Positive control: Pregabalin;
Test compound: compound Z-164;
The positive control and solvent composition of the test compound are 5% dimethylacetamide, 5% solutol and 90% saline.
30 mg/kg Compound Z-164:1.23 mL of dimethylacetamide was added to 148.11 mg of compound Z-164, stirred well until fully dissolved, and then 1.23 mL solutol was added and mixed well. Final volume was made up with 90% saline to 21.44 mL and mixed well before oral administration.
30 mg/kg Pregabalin: 1.08 mL of dimethylacetamide was added to 129.48 mg of Pregabalin, stirred well until fully dissolved, and then 1.08 mL solutol was added and mixed well. Final volume was made up with 90% saline to 21.58 mL and mixed well before oral administration.
1.1. Spinal Nerve Ligation (SNL) model • Surgical procedures are performed aseptically. • The surgical instruments (scissors, tweezers, scalpels, surgical cotton, sutures, retractor) are sterilized prior to surgery. • Animals were anesthetized with pentobarbital (50 mg/kg, i.p.). A toe pinch was used to ensure that the animals were fully anesthetized prior to surgery. Put ophthalmic ointment in the animal's eyes to prevent the corneas from drying out. • The fur on the surgical area of animal's lower body was shaved, and the skin of the surgical area was swabbed with 3 rounds of Betadine and 70% ethanol. The skin was allowed to dry before surgery. • A longitudinal incision will be made by scalpel at the lower lumbar and sacral levels, exposing the paraspinal muscles on the left side. The retractor was used to separate the muscles and tissues to expose the vertebra. • The left L5 and L6 spinal nerves will be isolated and tightly ligated with 6-0 silk thread. • The wound was closed with sutures. • The surgical instruments were cleaned, and sterilized by using a glass bead sterilizer. • Animals were placed on the electric blanket after surgery. Inject 5 ml sterile saline to prevent dehydration. The animals were returned to their home cage after fully awake (walking around).
1.2. Baseline Test of Cold Allodynic and Grouping
The baseline of cold allodynic was measured in rats two days before dosing. Use a pipette to apply 100 μl of acetone to the animal's lateral hind paw skin and the time of slapping, flinching, lifting, licking of the affected paw were recorded for one minute. Acetone was applied twice in total and the two applications were 10 minutes apart. The sum of the two times was recorded as cold allodynic time in rats. The rats were grouped randomized according to the results of baseline test of cold allodynic the day before dosing.
1.3. Cold Allodynic Testing
A pipette was used to apply 100 μl of acetone to the animal's lateral hind paw skin two hours after dosing and the time of slapping, flinching, lifting, licking of the affected paw were recorded for one minute. Acetone was applied twice and the two applications were 10 minutes apart. The sum of the two times was recorded as cold allodynic time in rats.
Oral administration was performed two hours before cold allodynic testing.
1.5. Data Collection and Analysis
Data were collected with Excel and analyzed with Prism.

[2] = 30 mg/kg p.o., two hours after dosing

T1 sequence (Q14524 whole entry): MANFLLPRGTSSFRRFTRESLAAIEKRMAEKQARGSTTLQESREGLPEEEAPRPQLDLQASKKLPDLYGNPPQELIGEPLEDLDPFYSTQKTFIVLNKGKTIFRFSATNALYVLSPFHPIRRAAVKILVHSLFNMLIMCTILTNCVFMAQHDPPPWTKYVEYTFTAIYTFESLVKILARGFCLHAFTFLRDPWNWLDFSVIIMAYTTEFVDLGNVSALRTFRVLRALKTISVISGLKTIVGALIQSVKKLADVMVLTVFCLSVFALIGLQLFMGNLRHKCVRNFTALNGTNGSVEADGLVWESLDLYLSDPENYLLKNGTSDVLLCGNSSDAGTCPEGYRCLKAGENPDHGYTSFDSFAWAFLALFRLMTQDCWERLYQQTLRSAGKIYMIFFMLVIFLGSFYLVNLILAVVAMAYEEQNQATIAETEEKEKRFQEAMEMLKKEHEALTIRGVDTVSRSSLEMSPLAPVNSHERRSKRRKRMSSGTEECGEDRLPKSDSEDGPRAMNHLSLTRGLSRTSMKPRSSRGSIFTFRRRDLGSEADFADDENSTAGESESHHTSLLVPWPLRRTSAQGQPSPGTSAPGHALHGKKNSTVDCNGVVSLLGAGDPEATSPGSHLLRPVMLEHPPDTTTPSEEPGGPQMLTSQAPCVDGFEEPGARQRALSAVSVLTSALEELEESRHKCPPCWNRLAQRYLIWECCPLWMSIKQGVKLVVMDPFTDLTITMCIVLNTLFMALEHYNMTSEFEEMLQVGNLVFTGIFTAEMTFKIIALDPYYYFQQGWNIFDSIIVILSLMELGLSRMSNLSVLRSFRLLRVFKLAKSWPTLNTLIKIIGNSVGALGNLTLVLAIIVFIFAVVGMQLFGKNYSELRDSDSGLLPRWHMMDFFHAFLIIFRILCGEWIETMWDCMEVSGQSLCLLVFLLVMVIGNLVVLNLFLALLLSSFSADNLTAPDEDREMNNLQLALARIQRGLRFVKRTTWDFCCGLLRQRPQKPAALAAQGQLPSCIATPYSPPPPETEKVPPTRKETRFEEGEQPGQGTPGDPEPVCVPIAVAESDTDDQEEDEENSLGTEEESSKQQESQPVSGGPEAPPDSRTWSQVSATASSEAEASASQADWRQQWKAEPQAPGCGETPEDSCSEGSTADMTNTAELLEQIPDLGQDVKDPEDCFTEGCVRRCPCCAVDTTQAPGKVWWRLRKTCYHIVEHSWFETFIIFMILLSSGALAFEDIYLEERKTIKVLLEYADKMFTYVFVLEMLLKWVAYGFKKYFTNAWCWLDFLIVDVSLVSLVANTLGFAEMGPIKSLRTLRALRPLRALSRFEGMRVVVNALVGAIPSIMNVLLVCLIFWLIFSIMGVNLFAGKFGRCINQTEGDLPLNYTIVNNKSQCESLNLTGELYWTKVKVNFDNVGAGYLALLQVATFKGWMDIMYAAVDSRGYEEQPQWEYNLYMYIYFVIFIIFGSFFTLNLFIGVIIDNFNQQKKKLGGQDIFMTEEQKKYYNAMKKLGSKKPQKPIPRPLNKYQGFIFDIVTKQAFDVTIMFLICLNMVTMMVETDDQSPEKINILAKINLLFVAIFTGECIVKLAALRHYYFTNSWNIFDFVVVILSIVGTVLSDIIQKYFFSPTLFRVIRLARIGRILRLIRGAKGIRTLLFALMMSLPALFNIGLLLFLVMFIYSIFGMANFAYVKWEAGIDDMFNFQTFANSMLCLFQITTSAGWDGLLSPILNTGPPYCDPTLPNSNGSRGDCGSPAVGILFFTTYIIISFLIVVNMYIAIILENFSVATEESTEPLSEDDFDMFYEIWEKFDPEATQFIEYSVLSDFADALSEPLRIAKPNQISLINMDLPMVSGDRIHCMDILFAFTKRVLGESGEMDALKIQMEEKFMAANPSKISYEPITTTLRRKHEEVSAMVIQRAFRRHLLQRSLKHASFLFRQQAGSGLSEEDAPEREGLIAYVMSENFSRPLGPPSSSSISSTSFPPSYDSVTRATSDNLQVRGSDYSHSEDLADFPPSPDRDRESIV

SMILES: Cc1cc(N2CCN(Cc3cc(F)c(C(=O)NS(=O)(=O)C4CC4)cc3Cl)CC2)ccc1Cl [Compound Z-164]
- IC50 (hNav1.5): 6160 nM
- Anti-allodynia Effect (mean, %) [1, 2]: 39.7%
- Response duration (mean, s) the next day (Baseline) [1, 2]: 24.327 s
- inhibition of SNL-induced cold allodynia (in words) ([1]; 30 mg/kg, 2 hr post oral administration): statistically significant inhibitory effect; also recorded: inhibition of SNL-induced cold allodynia
- Response duration (mean, s) the first day (Baseline) ([1]; acetone cold allodynia, baseline before dosing): 36.831 s
